{"source": "patent US6884798B2", "about": "“Fungicidal agent combinations” (Bayer CropScience AG, priority 2000, dated 2005)", "tested_on": "Sphaerotheca pannosa", "assay": "Sphaerotheca test roses/curative", "assay_type": "in vivo, Sphaerotheca pannosa on roses", "conditions": "infected roses sprayed three times at 7-day intervals; application rate 100 g/ha", "description": "To produce a suitable preparation of active compound, a commercial formulation of active compound or active compound combination is mixed with water until the desired concentration is reached.\nTo test for curative activity, roses infected with Sphaerotheca pannosa are sprayed three times, at intervals of in each case 7 days, with the preparation of active compound at the stated application rate. The plants are placed in a greenhouse at temperatures between 15° C. and 23° C. and a relative atmospheric humidity of about 70%.\nEvaluation is carried out 10 or 20 days after the third treatment. 0% means an efficacy which corresponds to that of the control, whereas an efficacy of 100% means that no infection is observed."}
{"smiles": "CC(C)(C)C(O)(CCc1ccc(Cl)cc1)Cn1cncn1", "note": "(centres unmarked) [tebuconazoles, tebuconazole]", "values": [{"measurement": "Efficacy in % 10 days after the third treatment", "value": 28.6, "unit": "%"}, {"measurement": "Efficacy in % 20 days after the third treatment", "value": 26.6, "unit": "%"}]}
